Laboratory results published in PubChem BioAssay AID330 (DTP/NCI, 2004).
Values joined by “and” are separate entries in the source; they are usually repeats but may differ in a detail not shown here. Identical values can stand only once. Inconclusive results and toxic doses are left out. Rule for the calls: active = survival T/C of 150% or more; inactive = T/C below 125% in these data.

Tested on: P388 leukemia ip, CD2F1 mice, survival T/C
Experiment: NCI In Vivo Anticancer Drug Screen. Data for tumor model P388 Leukemia (intraperitoneal) in CD2F1 (CDF1) mice
Settings: endpoint: median survival time, higher = longer survival
Outline: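 Mice carrying the transplanted tumor received test compound or vehicle. Survival was recorded in each group, and the value is the treated-group measurement divided by that of the vehicle-treated control group.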

[1] = dose: 60.0 mg/kg/injection, schedule: Q01DX005 (ip), vehicle: saline with Tween-80
[2] = dose: 120.0 mg/kg/injection, schedule: Q01DX005 (ip), vehicle: saline with Tween-80
[3] = dose: 240.0 mg/kg/injection, schedule: Q01DX005 (ip), vehicle: saline with Tween-80
[4] = dose: 12.5 mg/kg/injection, schedule: Q01DX009 (ip), vehicle: saline with Tween-80
[5] = dose: 25.0 mg/kg/injection, schedule: Q01DX009 (ip), vehicle: saline with Tween-80
[6] = dose: 50.0 mg/kg/injection, schedule: Q01DX009 (ip), vehicle: saline with Tween-80
[7] = dose: 100.0 mg/kg/injection, schedule: Q01DX009 (ip), vehicle: saline with Tween-80
[8] = dose: 50.0 mg/kg/injection, schedule: Q01DX009 (ip), vehicle: saline
[9] = dose: 100.0 mg/kg/injection, schedule: Q01DX009 (ip), vehicle: saline
[10] = dose: 200.0 mg/kg/injection, schedule: Q01DX009 (ip), vehicle: saline
[11] = dose: 50.0 mg/kg/injection, schedule: Q01DX005 (ip), vehicle: saline with Tween-80
[12] = dose: 100.0 mg/kg/injection, schedule: Q01DX005 (ip), vehicle: saline with Tween-80
[13] = dose: 200.0 mg/kg/injection, schedule: Q01DX005 (ip), vehicle: saline with Tween-80
[14] = dose: 200.0 mg/kg/injection, schedule: Q01DX009 (ip), vehicle: saline with Tween-80

Measured: T/C

C[N+](C)(C)CCOC(=O)CCC(=O)OCC[N+](C)(C)C
inactive: dose: 312.0 micrograms/kg/injection, schedule: Q01DX009 (ip), vehicle: saline 104 % of control | dose: 625.0 micrograms/kg/injection, schedule: Q01DX009 (ip), vehicle: saline 90 % of control | dose: 1250.0 micrograms/kg/injection, schedule: Q01DX009 (ip), vehicle: saline 109 % of control

CCN1C(=O)CSC1=S
inactive: dose: 6.25 mg/kg/injection, schedule: Q04DX002 (ip), vehicle: Klucel (hydroxypropylcellulose) (HPC) 112 % of control | dose: 12.5 mg/kg/injection, schedule: Q04DX002 (ip), vehicle: Klucel (hydroxypropylcellulose) (HPC) 110 % of control | dose: 25.0 mg/kg/injection, schedule: Q04DX002 (ip), vehicle: Klucel (hydroxypropylcellulose) (HPC) 105 % of control | dose: 50.0 mg/kg/injection, schedule: Q04DX002 (ip), vehicle: Klucel (hydroxypropylcellulose) (HPC) 109 % of control

CCCCCCCCCCCCCCCC[N+](C)(C)CCNC(=O)c1ccccc1
inactive: dose: 3.12 mg/kg/injection, schedule: Q01DX009 (ip), vehicle: water 101 % of control | dose: 6.25 mg/kg/injection, schedule: Q01DX009 (ip), vehicle: water 106 % of control | dose: 12.5 mg/kg/injection, schedule: Q01DX009 (ip), vehicle: water 99 % of control and 101 % of control

O=c1[nH]c2ccccc2nc1/C=C(\O)c1ccc([N+](=O)[O-])cc1
inactive: dose: 7.5 mg/kg/injection, schedule: Q01DX005 (ip), vehicle: Klucel + Tween-80 100 % of control | dose: 15.0 mg/kg/injection, schedule: Q01DX005 (ip), vehicle: Klucel + Tween-80 89 % of control | dose: 30.0 mg/kg/injection, schedule: Q01DX005 (ip), vehicle: Klucel + Tween-80 86 % of control

Cc1[nH]c2cc3c(cc2c(=O)c1Cc1c(C)[nH]c2cc4c(cc2c1=O)CCCC4)CCCC3
inactive: dose: 100.0 mg/kg/injection, schedule: Q01DX001 (ip), vehicle: Klucel (hydroxypropylcellulose) (HPC) 87 % of control | dose: 200.0 mg/kg/injection, schedule: Q01DX001 (ip), vehicle: Klucel (hydroxypropylcellulose) (HPC) 88 % of control | dose: 400.0 mg/kg/injection, schedule: Q01DX001 (ip), vehicle: Klucel (hydroxypropylcellulose) (HPC) 87 % of control

O=C(NC(CC1CCC2OCOC2C1)C(=O)O)c1ccccc1 (centres undefined)
inactive: [1] 111 % of control | [2] 102 % of control | [3] 105 % of control

N=c1c2c(ncn1Cc1ccccc1)CCN(Cc1ccccc1)C2
inactive: [4] 101 % of control | [5] 100 % of control and 114 % of control | [6] 104 % of control | [7] 112 % of control

O=C1c2cc3c(-c4ccccc4)sc(-c4ccccc4)c3cc2C(=O)c2c(O)ccc(O)c21
inactive: dose: 12.5 mg/kg/injection, schedule: Q04DX002 (ip), vehicle: saline with Tween-80 90 % of control | dose: 25.0 mg/kg/injection, schedule: Q04DX002 (ip), vehicle: saline with Tween-80 91 % of control | dose: 50.0 mg/kg/injection, schedule: Q04DX002 (ip), vehicle: saline with Tween-80 98 % of control and 88 % of control

COc1cccc(N)c1N
inactive: dose: 25.0 mg/kg/injection, schedule: Q01DX009 (ip), vehicle: saline 99 % of control | dose: 25.0 mg/kg/injection, schedule: Q01DX009 (ip), vehicle: suspension in saline 103 % of control | [8] 100 % of control | dose: 50.0 mg/kg/injection, schedule: Q01DX009 (ip), vehicle: suspension in saline 106 % of control | [9] 106 % of control | dose: 100.0 mg/kg/injection, schedule: Q01DX009 (ip), vehicle: suspension in saline 107 % of control | [10] 96 % of control | dose: 200.0 mg/kg/injection, schedule: Q01DX009 (ip), vehicle: suspension in saline 91 % of control

CC1CCCC(C)N1C(=O)c1ccccc1 (centres undefined)
inactive: [1] 98 % of control | [2] 97 % of control | [3] 96 % of control

COc1ccc(C2CC(=O)c3c(O)cc(OC4OC(CO)C(O)C(O)C4OC4OC(C)C(O)C(O)C4O)cc3O2)cc1O (centres undefined)
inactive: [11] 102 % of control | [12] 100 % of control | [13] 92 % of control

O=c1c(Cl)c2cc3c(cc2c2ccccc12)nc1ccccc1n3C1CCCCC1
inactive: [6] 88 % of control | [7] 94 % of control | [14] 98 % of control

Cc1cccc2c(OCC3CO3)cc(=O)[nH]c12 (centres undefined)
inactive: dose: 25.0 mg/kg/injection, schedule: Q01DX005 (ip), vehicle: saline with Tween-80 110 % of control | [11] 114 % of control and 118 % of control

COCCOCCOCCOCCOCCOCCOCCOCCOCCOCCOCCOCCOCCOCCn1cc(F)c(=O)[nH]c1=O
inactive: dose: 100.0 mg/kg/injection, schedule: Q04DX002 (ip), vehicle: saline 100 % of control | dose: 200.0 mg/kg/injection, schedule: Q04DX002 (ip), vehicle: saline 101 % of control | dose: 400.0 mg/kg/injection, schedule: Q04DX002 (ip), vehicle: saline 104 % of control | dose: 800.0 mg/kg/injection, schedule: Q04DX002 (ip), vehicle: saline 100 % of control

COc1ccccc1NC(=O)CC(=O)N1N=C(C)C(N=Nc2cccc(C(=O)O)c2)C1=O (centres undefined)
inactive: [1] 98 % of control | [2] 98 % of control

COC(=O)C1(CC(=O)c2ccccc2)NC(=S)NC(=O)C1C#N (centres undefined)
inactive: [1] 103 % of control | [2] 98 % of control | [3] 98 % of control

CC(=O)Nc1cccc2c1C(=O)OC2=O
inactive: [6] 100 % of control | [7] 109 % of control | [14] 108 % of control | dose: 400.0 mg/kg/injection, schedule: Q01DX009 (ip), vehicle: saline with Tween-80 102 % of control

Cc1c(C2Nc3ccccc3C2C)[nH]c2ccccc12 (centres undefined)
inactive: [11] 104 % of control | [12] 100 % of control | [13] 103 % of control

O=c1ccncn1C1OC(CO)C(O)C1O (centres undefined)
inactive: dose: 60.0 mg/kg/injection, schedule: Q01DX005 (ip), vehicle: saline 103 % of control | dose: 120.0 mg/kg/injection, schedule: Q01DX005 (ip), vehicle: saline 102 % of control | dose: 240.0 mg/kg/injection, schedule: Q01DX005 (ip), vehicle: saline 110 % of control

C/C(=N\NS(=O)(=O)c1ccc(C)cc1)c1cccs1
inactive: dose: 50.0 mg/kg/injection, schedule: Q01DX009 (ip), vehicle: Klucel (hydroxypropylcellulose) (HPC) 100 % of control | dose: 100.0 mg/kg/injection, schedule: Q01DX009 (ip), vehicle: Klucel (hydroxypropylcellulose) (HPC) 91 % of control | dose: 200.0 mg/kg/injection, schedule: Q01DX009 (ip), vehicle: Klucel (hydroxypropylcellulose) (HPC) 92 % of control

COc1ccc2c3c(ccc2c1)C(=O)/C(=C\O)CC3
inactive: dose: 12.5 mg/kg/injection, schedule: Q01DX005 (ip), vehicle: Klucel (hydroxypropylcellulose) (HPC) 103 % of control | dose: 25.0 mg/kg/injection, schedule: Q01DX005 (ip), vehicle: Klucel (hydroxypropylcellulose) (HPC) 93 % of control | dose: 50.0 mg/kg/injection, schedule: Q01DX005 (ip), vehicle: Klucel (hydroxypropylcellulose) (HPC) 95 % of control and 97 % of control

CCCCCCCCCCSCC(N)CO (centres undefined)
inactive: dose: 6.25 mg/kg/injection, schedule: Q01DX009 (ip), vehicle: saline with Tween-80 93 % of control | [4] 100 % of control | [5] 100 % of control

CC(=O)NCC#N
inactive: dose: 100.0 mg/kg/injection, schedule: Q01DX001 (ip), vehicle: saline 107 % of control | dose: 200.0 mg/kg/injection, schedule: Q01DX001 (ip), vehicle: saline 102 % of control | dose: 400.0 mg/kg/injection, schedule: Q01DX001 (ip), vehicle: saline 121 % of control

Clc1ccc(SSN2CCCCC2)cc1
inactive: [8] 92 % of control | [9] 97 % of control | [10] 96 % of control
